Reference: patent US6887713B2, “Bioactive chip mass spectrometry” (Intrinsic Bioprobes, Inc., priority 2000, dated 2005)

Target: streptavidin (Streptomyces avidinii, UniProt P22629)
Details: mixture of 10.0 μM Pep K and 10.0 μM Pep R, 60 s at 20 μl/min, then ~15 s running buffer; immobilized streptavidin
Description: A bioactive chip BC containing streptavidin-derivatized separation site SS was exposed for 60 s (at a flow rate of 20 μl/min) to a mixture containing 10.0 μM Pep K and 10.0 μM Pep R, after which a ˜15 s exposure to the running buffer followed. The separation site SS on the bioactive chip BC was then MALDI-TOF MS analyzed.
The fitting parameters are listed in the figure and were used with starting concentrations of [Pep K]=7 uM; [Pep K(ox)]=3 uM; and [Pep R & Pep R(ox)]=10 uM. A criterion was used in which the relative quantities of the individual species at the end of the run corresponded to the relative quantities estimated from the mass spectrum taken from the surface of the separation site SS.

Sequence of streptavidin (P22629 25-183, species assumed): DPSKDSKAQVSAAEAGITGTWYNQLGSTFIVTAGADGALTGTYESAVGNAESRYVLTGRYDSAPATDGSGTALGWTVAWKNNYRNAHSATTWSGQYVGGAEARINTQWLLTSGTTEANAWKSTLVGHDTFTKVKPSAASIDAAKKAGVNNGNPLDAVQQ

Question: Which “retention by / affinity for streptavidin (change in MALDI-TOF ion signal intensity ratio before vs after interaction)” value does the source give for SGTSFHPQWIMVGRVATNSP [PepR] here?
Answer: preferential retention
